≈ marks a conversion by molar mass, not a printed value.
Experiments:
Assay type in all cases: cell-based
[1] = tested on: STREPTOCOCCUS PYOGENES 930; experiment: In vitro antibacterial activity, MIC, BHI agar dilution; conditions: S. pyogenes 930, unit assumed
[2] = tested on: PSEUDOMONAS AERUGINOSA DPHD-5263; experiment: as above; conditions: P. aeruginosa DPHD-5263, unit assumed
[3] = tested on: STREPTOCOCCUS PYOGENES PIU 2548; experiment: as above; conditions: S. pyogenes PIU 2548, unit assumed
[4] = tested on: PSEUDOMONAS AERUGINOSA 5007; experiment: as above; conditions: P. aeruginosa 5007, unit assumed
ESCHERICHIA COLI H560 = experiment: as above; conditions: E. coli H560, unit assumed
[5] = tested on: STAPHYLOCOCCUS AUREUS CMX 553; experiment: as above; conditions: S. aureus CMX 553, unit assumed
[6] = tested on: PSEUDOMONAS AERUGINOSA DPHD-2862; experiment: as above; conditions: P. aeruginosa DPHD-2862, unit assumed
[7] = tested on: KLEBSIELLA PNEUMONIAE ATCC 8045; experiment: as above; conditions: K. pneumoniae ATCC 8045, unit assumed
ESCHERICHIA COLI DC-2 = experiment: as above; conditions: E. coli DC-2, unit assumed
[8] = tested on: STAPHYLOCOCCUS AUREUS ATCC 6538P; experiment: as above; conditions: S. aureus ATCC 6538P, 35-37° C., 20 to 24 hours, unit assumed
[9] = tested on: STREPTOCOCCUS BOVIS A-5169; experiment: as above; conditions: S. bovis A-5169, unit assumed
[10] = tested on: STREPTOCOCCUS PYOGENES EES61; experiment: as above; conditions: S. pyogenes EES61, unit assumed
[11] = tested on: STAPHYLOCOCCUS AUREUS NCTC10649M; experiment: as above; conditions: S. aureus NCTC10649M, unit assumed
[12] = tested on: STAPHYLOCOCCUS AUREUS CMX 642A; experiment: as above; conditions: S. aureus CMX 642A, unit assumed
[13] = tested on: ENTEROBACTER AEROGENES ATCC 13048; experiment: as above; conditions: E. aerogenes ATCC 13048, unit assumed
[14] = tested on: PSEUDOMONAS AERUGINOSA K799/61; experiment: as above; conditions: P. aeruginosa K799/61, unit assumed
ESCHERICHIA COLI KNK 437 = conditions: E. coli KNK 437; BHI agar; unit assumed
[15] = tested on: PSEUDOMONAS AERUGINOSA BMH10; experiment: In vitro antibacterial activity, MIC, BHI agar dilution; conditions: P. aeruginosa BMH10, unit assumed
[16] = tested on: PROVIDENCIA STUARTII CMX 640; conditions: P. stuartii CMX 640; BHI agar; unit assumed
CANDIDA ALBICANS CCH 442 = experiment: In vitro antibacterial activity, MIC, BHI agar dilution; conditions: C. albicans CCH 442, unit assumed
[17] = tested on: PSEUDOMONAS AERUGINOSA K799/WT; experiment: as above; conditions: P. aeruginosa K799/WT, unit assumed
[18] = tested on: MYCOBACTERIUM SMEGMATIS ATCC 114; experiment: as above; conditions: M. smegmatis ATCC 114, unit assumed
PSEUDOMONAS CEPACIA 296I = experiment: as above; conditions: P. cepacia 296I, unit assumed
[19] = tested on: STAPHYLOCOCCUS AUREUS A-5278; experiment: as above; conditions: S. aureus A-5278, unit assumed
[20] = tested on: ACINETOBACTER CALCOACETICUS CMX 669; experiment: as above; conditions: A. calcoaceticus CMX 669, unit assumed
M[…] ATCC 4698 = experiment: as above; conditions: M. luteus ATCC 4698, unit assumed
How it was run: (§1)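 Twelve successive aqueous dilutions of compound in Brain Heart Infusion agar were inoculated with 1:100 culture dilutions (1:10 for slow growers such as Micrococcus, Streptococcus) by Steers replicator and incubated at 35-37° C for 20 to 24 hours. MIC was the lowest concentration giving no growth, slight haze or sparse colonies versus drug-free control.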

STR[…] 508 = experiment: as above; conditions: S. agalactiae CMX 508, unit assumed
How it was run: as §1

EN[…] ATCC 8043 = experiment: as above; conditions: E. faecium ATCC 8043, unit assumed
How it was run: as §1

M[…] ATCC 9341 = experiment: as above; conditions: M. luteus ATCC 9341, unit assumed
How it was run: as §1

[21] = tested on: STAPHYLOCOCCUS EPIDERMIDIS 3519; conditions: S. epidermidis 3519; BHI agar; unit assumed
[22] = tested on: STAPHYLOCOCCUS AUREUS A5177; experiment: In vitro antibacterial activity, MIC, BHI agar dilution
[23] = tested on: STAPHYLOCOCCUS AUREUS 1775; experiment: as above; conditions: S. aureus 1775, unit assumed
ESCHERICHIA COLI SS = experiment: as above; conditions: E. coli SS, unit assumed

Structure (SMILES) | MIC [1] [µg/mL] | MIC [2] [µg/mL] | MIC [4] [µg/mL] | MIC (ESCHERICHIA COLI H560) [µg/mL] | MIC [5] [µg/mL] | MIC [6] [µg/mL] | MIC [7] [µg/mL] | MIC (ESCHERICHIA COLI DC-2) [µg/mL] | MIC [8] [µg/mL] | MIC [10] [µg/mL] | MIC [11] [µg/mL] | MIC [12] [µg/mL] | MIC [13] [µg/mL] | MIC (ESCHERICHIA COLI KNK 437) [µg/mL] | MIC [15] [µg/mL] | MIC [16] [µg/mL] | MIC (CANDIDA ALBICANS CCH 442) [µg/mL] | MIC [17] [µg/mL] | MIC [18] [µg/mL] | MIC (PSEUDOMONAS CEPACIA 296I) [µg/mL] | other results
CC[C@H]1OC(=O)[C@H](C)C[C@H](C)[C@@H](O[C@@H]2O[C@H](C)C[C@H](N(C)C)[C@H]2O)[C@](C)(OC)C[C@@H](C)C2=NCCN3C(=O)O[C@@]1(C)[C@H]3[C@H]2C [Example 1] | > 100 | 50 (≈ 80.1 µM) | > 100 | 50 (≈ 80.1 µM) | 6.2 (≈ 9.94 µM) | > 100 | > 100 | 0.78 (≈ 1.25 µM) | 6.2 (≈ 9.94 µM) | 0.39 (≈ 0.625 µM) | 6.2 (≈ 9.94 µM) | 6.2 (≈ 9.94 µM) | > 100 | 25 (≈ 40.1 µM) | > 100 | 100 (≈ 160 µM) | > 100 | > 100 | 3.1 (≈ 4.97 µM) | 12.5 (≈ 20 µM) | MIC [3]: 0.78 µg/mL (≈ 1.25 µM); MIC [9]: 0.39 µg/mL (≈ 0.625 µM); MIC [14]: > 100 µg/mL; MIC [19]: > 100 µg/mL; MIC [20]: > 100 µg/mL; MIC (M[…] ATCC 4698): 0.39 µg/mL (≈ 0.625 µM); MIC (STR[…] 508): 0.39 µg/mL (≈ 0.625 µM); MIC (EN[…] ATCC 8043): 0.78 µg/mL (≈ 1.25 µM); MIC (M[…] ATCC 9341): 0.39 µg/mL (≈ 0.625 µM); MIC [21]: 12.5 µg/mL (≈ 20 µM); MIC ([22]; S. aureus A5177): 6.2 µg/mL (≈ 9.94 µM); MIC [23]: > 100 µg/mL
CC[C@H]1OC(=O)[C@H](C)C(=O)[C@H](C)[C@@H](O[C@@H]2O[C@H](C)C[C@H](N(C)C)[C@H]2O)[C@](C)(OC)C[C@@H](C)C2=NC[C@@H](C)N3C(=O)O[C@@]1(C)[C@H]3[C@H]2C [Example 9] | > 100 | > 100 | > 100 | 25 (≈ 38.4 µM) | 0.39 (≈ 0.598 µM) | > 100 | 25 (≈ 38.4 µM) | 25 (≈ 38.4 µM) | 0.39 (≈ 0.598 µM) | 0.01 (≈ 0.0153 µM) | 0.2 (≈ 0.307 µM) | 0.39 (≈ 0.598 µM) | 25 (≈ 38.4 µM) | 100 (≈ 153 µM) | 100 (≈ 153 µM) | > 100 | > 100 | 100 (≈ 153 µM) | 3.1 (≈ 4.76 µM) | > 100 | MIC [3]: 0.39 µg/mL (≈ 0.598 µM); MIC [14]: 6.2 µg/mL (≈ 9.51 µM); MIC [19]: > 100 µg/mL; MIC [20]: 12.5 µg/mL (≈ 19.2 µM); MIC (M[…] ATCC 4698): 0.39 µg/mL (≈ 0.598 µM); MIC (STR[…] 508): 0.01 µg/mL (≈ 0.0153 µM); MIC (EN[…] ATCC 8043): 0.05 µg/mL (≈ 0.0767 µM); MIC (M[…] ATCC 9341): 0.1 µg/mL (≈ 0.153 µM); MIC [21]: 0.39 µg/mL (≈ 0.598 µM); MIC ([22]; S. aureus A5177, unit assumed): 0.39 µg/mL (≈ 0.598 µM); MIC [23]: > 100 µg/mL
CC[C@H]1OC(=O)[C@H](C)C(=O)[C@H](C)[C@@H](O[C@@H]2O[C@H](C)C[C@H](N(C)C)[C@H]2O)[C@](C)(OC)C[C@@H](C)C2=NC[C@H](CO)N3C(=O)O[C@@]1(C)[C@H]3[C@H]2C [Example 63] | > 100 | > 100 | > 100 | 50 (≈ 74.9 µM) | 1.56 (≈ 2.34 µM) | > 100 | > 100 | > 100 | 0.78 (≈ 1.17 µM) | 0.1 (≈ 0.15 µM) | 0.78 (≈ 1.17 µM) | 1.56 (≈ 2.34 µM) | > 100 | > 100 | > 100 | > 100 | > 100 | > 100 | 6.2 (≈ 9.28 µM) | > 100 | MIC (ESCHERICHIA COLI SS): 0.78 µg/mL (≈ 1.17 µM); MIC [9]: 0.05 µg/mL (≈ 0.0749 µM); MIC [19]: > 100 µg/mL; MIC [20]: 100 µg/mL (≈ 150 µM); MIC (M[…] ATCC 4698): 0.78 µg/mL (≈ 1.17 µM); MIC (STR[…] 508): 0.2 µg/mL (≈ 0.299 µM); MIC (EN[…] ATCC 8043): 0.2 µg/mL (≈ 0.299 µM); MIC (M[…] ATCC 9341): 0.2 µg/mL (≈ 0.299 µM); MIC [21]: 0.78 µg/mL (≈ 1.17 µM); MIC ([22]; S. aureus A5177, unit assumed): 0.78 µg/mL (≈ 1.17 µM); MIC [23]: > 100 µg/mL
CC[C@H]1OC(=O)[C@H](C)C(=O)[C@H](C)[C@@H](O[C@@H]2O[C@H](C)C[C@H](N(C)C)[C@H]2O)[C@](C)(OC)C[C@@H](C)C2=NC[C@H](Cc3ccc(OCc4ccccc4)cc3)N3C(=O)O[C@@]1(C)[C@H]3[C@H]2C [Example 64] | 25 (≈ 30 µM) | > 100 | > 100 | > 100 | 0.2 (≈ 0.24 µM) | > 100 | > 100 | > 100 | 0.39 (≈ 0.468 µM) | 0.05 (≈ 0.0599 µM) | 0.2 (≈ 0.24 µM) | 0.39 (≈ 0.468 µM) | > 100 | > 100 | > 100 | > 100 | 50 (≈ 59.9 µM) | > 100 | 1.56 (≈ 1.87 µM) | > 100 | MIC [3]: 0.78 µg/mL (≈ 0.935 µM); MIC (ESCHERICHIA COLI SS): 6.2 µg/mL (≈ 7.43 µM); MIC [9]: 0.1 µg/mL (≈ 0.12 µM); MIC [14]: 12.5 µg/mL (≈ 15 µM); MIC [19]: 50 µg/mL (≈ 59.9 µM); MIC [20]: > 100 µg/mL; MIC (M[…] ATCC 4698): 0.78 µg/mL (≈ 0.935 µM); MIC (STR[…] 508): 0.1 µg/mL (≈ 0.12 µM); MIC (EN[…] ATCC 8043): 0.2 µg/mL (≈ 0.24 µM); MIC (M[…] ATCC 9341): 0.1 µg/mL (≈ 0.12 µM); MIC [21]: 0.39 µg/mL (≈ 0.468 µM); MIC ([22]; S. aureus A5177, unit assumed): 0.2 µg/mL (≈ 0.24 µM); MIC [23]: 50 µg/mL (≈ 59.9 µM)

Reference: patent US6274715A, “Tricyclic erythromycin derivatives” (priority 1997, dated 2001)
